Test results from article PMC9862586, “3-(Adenosylthio)benzoic Acid Derivatives as SARS-CoV-2 Nsp14 Methyltransferase Inhibitors” (Molecules, 2023).

Assays:
Test in all cases: HTRF methyltransferase assay (SAM to SAH)
Format in all cases: biochemical
[1] = biological target: T1, SARS-CoV-2 nsp14 guanine-N7-methyltransferase (Severe acute respiratory syndrome coronavirus 2, UniProt P0DTD1)
T1 construct: gene rep
From the text: HTRF methyltransferase assay (SAM to SAH) on SARS-CoV-2 nsp14 guanine-N7-methyltransferase

[2] = biological target: T2, human glycine N-methyltransferase (hGNMT) (Homo sapiens, UniProt Q14749)
T2 construct: gene GNMT; commercial protein (MyBioSource); homotetramer by known biology
T2 sequence (Q14749 2-295): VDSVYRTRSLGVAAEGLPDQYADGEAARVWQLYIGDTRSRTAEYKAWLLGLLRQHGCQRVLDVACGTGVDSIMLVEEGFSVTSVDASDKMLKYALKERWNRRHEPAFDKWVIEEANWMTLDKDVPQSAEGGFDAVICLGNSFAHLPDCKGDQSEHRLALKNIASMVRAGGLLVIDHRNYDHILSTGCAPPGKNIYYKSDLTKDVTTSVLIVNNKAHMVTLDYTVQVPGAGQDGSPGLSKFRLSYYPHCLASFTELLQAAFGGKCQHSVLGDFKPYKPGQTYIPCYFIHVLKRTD
From the text: HTRF methyltransferase assay (SAM to SAH) on human glycine N-methyltransferase (hGNMT)

nsp16/nsp10 = biological target: T3, nsp16/nsp10 (Severe acute respiratory syndrome coronavirus 2, UniProt P0DTD1); conditions: read-out: SARS-CoV-2 / nsp16/nsp10, IC50
T3 construct: gene rep
From the text: HTRF methyltransferase assay (SAM to SAH) on nsp16/nsp10

SMILES | IC50 [1] | IC50 [2] | IC50 (nsp16/nsp10)
Nc1ncnc2c1ncn2[C@@H]1O[C@H](CSCc2ccc(C(=O)O)cc2)[C@@H](O)[C@H]1O [5a, 4-(((Adenosyl)thio)methyl)benzoic acid] | 500 ± 30 nM | 400 ± 40 nM | 1450 ± 70 nM
CS(=O)(=O)Nc1cccc(CSC[C@H]2O[C@@H](n3cnc4c(N)ncnc43)[C@H](O)[C@@H]2O)c1 [5c, N-(3-(((Adenosyl)thio)methyl)phenyl)methanesulfonamide] | 280 ± 20 nM | 250 ± 20 nM | 480 ± 30 nM
Nc1ncnc2c1ncn2[C@@H]1O[C@H](CSCc2cccc(CC(=O)O)c2)[C@@H](O)[C@H]1O [5d, 2-(3-(((Adenosyl)thio)methyl)phenyl)acetic acid] | 680 ± 30 nM | 400 ± 30 nM | 1840 ± 90 nM
Nc1ncnc2c1ncn2[C@@H]1O[C@H](CSCc2cccc(O)c2)[C@@H](O)[C@H]1O [5e, 5′-(((3-Hydroxy)benzyl)thio)-5′-deoxyadenosine] | – | 600 ± 30 nM | –
Nc1ncnc2c1ncn2[C@@H]1O[C@H](CSCc2cccc(CO)c2)[C@@H](O)[C@H]1O [5f, 5′-(((3-Hydroxymethyl)benzyl)thio)-5′-deoxyadenosine] | 740 ± 40 nM | 1200 ± 100 nM | –
N#Cc1cccc(CSC[C@H]2O[C@@H](n3cnc4c(N)ncnc43)[C@H](O)[C@@H]2O)c1 [5g, 3-(((Adenosyl)thio)methyl)benzonitrile] | 351 ± 28 nM | 724 ± 58 nM | –
Nc1ncnc2c1ncn2[C@@H]1O[C@H](CSCc2cccc(-c3nn[nH]n3)c2)[C@@H](O)[C@H]1O [5h, 5′-((3-(Tetrazolyl)benzyl)thio)-5′-deoxyadenosine] | 340 ± 12 nM | 220 ± 9 nM | –
CS(=O)(=O)c1cccc(CSC[C@H]2O[C@@H](n3cnc4c(N)ncnc43)[C@H](O)[C@@H]2O)c1 [5i, 5′-((3-(Methylsulfonyl)benzyl)thio)-5′-deoxyadenosine] | 270 ± 20 nM | 250 ± 20 nM | –
CNS(=O)(=O)c1cccc(CSC[C@H]2O[C@@H](n3cnc4c(N)ncnc43)[C@H](O)[C@@H]2O)c1 [5j, 3-(((Adenosyl)thio)methyl)-N-methylbenzenesulfonamide] | 400 ± 19 nM | 350 ± 17 nM | –
COC(=O)c1cccc(CSC[C@H]2O[C@@H](n3cnc4c(N)ncnc43)[C@H](O)[C@@H]2O)c1 [5k, Methyl 3-(((adenosyl)thio)methyl)benzoate] | 1350 ± 70 nM | 870 ± 50 nM | –
CNC(=O)c1cccc(CSC[C@H]2O[C@@H](n3cnc4c(N)ncnc43)[C@H](O)[C@@H]2O)c1 [5l, 3-(((Adenosyl)thio)methyl)-N-methylbenzamide] | 2790 ± 140 nM | 2780 ± 130 nM | –
Nc1ncnc2c1ncn2[C@@H]1O[C@H](CSCc2ccc(Cl)c(C(=O)O)c2)[C@@H](O)[C@H]1O [5m, 5-(((Adenosyl)thio)methyl)-2-chlorobenzoic acid] | 7.7 ± 0.4 nM | 6.6 ± 0.3 nM | –
Nc1ncnc2c1ncn2[C@@H]1O[C@H](CSCc2ccc(F)c(C(=O)O)c2)[C@@H](O)[C@H]1O [5n, 5-(((Adenosyl)thio)methyl)-2-fluorobenzoic acid] | 16 ± 2 nM | 6.1 ± 0.3 nM | –
Nc1ncnc2c1ncn2[C@@H]1O[C@H](CSCc2cc(Cl)cc(C(=O)O)c2)[C@@H](O)[C@H]1O [5o, 3-(((Adenosyl)thio)methyl)-5-chlorobenzoic acid] | 24 ± 1.2 nM | 15 ± 0.7 nM | –
Nc1ncnc2c1ncn2[C@@H]1O[C@H](CSCc2cc(C(=O)O)cc(-c3ccccc3)c2)[C@@H](O)[C@H]1O [5p, 5-(((Adenosyl)thio)methyl)-[1,1′-biphenyl]-3-carboxylic acid] | 0.58 ± 0.03 nM | 0.97 ± 0.05 nM | –
Nc1ncnc2c1ncn2[C@@H]1O[C@H](CSCc2ccc(-c3ccccc3)c(C(=O)O)c2)[C@@H](O)[C@H]1O [5r, 4-(((Adenosyl)thio)methyl)-[1,1′-biphenyl]-2-carboxylic acid] | 36 ± 1.8 nM | 10 ± 0.5 nM | –
Nc1ncnc2c1ncn2[C@@H]1O[C@H](CSCc2cc(C(=O)O)cc(-c3ccc(O)cc3)c2)[C@@H](O)[C@H]1O [5t, 5-(((Adenosyl)thio)methyl)-4′-hydroxy-[1,1′-biphenyl]-3-carboxylic acid] | 4.2 ± 0.2 nM | 4.5 ± 0.2 nM | –
Nc1ncnc2c1ncn2[C@@H]1O[C@H](CSCc2cc(C#CCO)cc(C(=O)O)c2)[C@@H](O)[C@H]1O [5v, 3-(((Adenosyl)thio)methyl)-5-(3-hydroxyprop-1-yn-1-yl)benzoic acid] | 12 ± 0.6 nM | 9.8 ± 0.5 nM | –
Nc1ncnc2c1ncn2[C@@H]1O[C@H](CSc2ccc(Cl)c(C(=O)O)c2)[C@@H](O)[C@H]1O [10a, 2-Chloro-5-((adenosyl)thio)benzoic acid] | 20 ± 2 nM | 13 ± 2 nM | 30 ± 4 nM
Nc1ncnc2c1ncn2[C@@H]1O[C@H](CSc2cc(C(=O)O)ccc2Cl)[C@@H](O)[C@H]1O [10b, 4-Chloro-5-((adenosyl)thio)benzoic acid] | 1300 ± 60 nM | 330 ± 20 nM | 2300 ± 120 nM
Nc1ncnc2c1ncn2[C@@H]1O[C@H](CSc2ccc(Br)c(C(=O)O)c2)[C@@H](O)[C@H]1O [10c, 2-Bromo-5-((adenosyl)thio)benzoic acid] | 24 ± 2 nM | 8.2 ± 0.4 nM | –
COc1ccc(SC[C@H]2O[C@@H](n3cnc4c(N)ncnc43)[C@H](O)[C@@H]2O)cc1C(=O)O [10d, 2-Methoxy-5-((adenosyl)thio)benzoic acid] | 17 ± 0.9 nM | 13 ± 0.6 nM | –
Nc1ncnc2c1ncn2[C@@H]1O[C@H](CSc2ccc(-c3ccccc3)c(C(=O)O)c2)[C@@H](O)[C@H]1O [10e, 4-((Adenosyl)thio)-[1,1′-biphenyl]-2-carboxylic acid] | 25 ± 2 nM | 24 ± 1 nM | –
Nc1ncnc2c1ncn2[C@@H]1O[C@H](CSc2ccc(C(=O)O)c(-c3ccccc3)c2)[C@@H](O)[C@H]1O [10f, 5-((Adenosyl)thio)-[1,1′-biphenyl]-2-carboxylic acid] | 420 ± 19 nM | 210 ± 10 nM | –
